Publication PMC7507803 (ACS Pharmacology & Translational Science, 2020)
pIC50: −log10 of the molar value. Residues, ends and D or L forms follow the SMILES beside them. *: point of attachment. AMC = Cc1cc(=O)oc2cc(N*)ccc12; Boc = CC(C)(C)OC(=O)*

Legend:
[1] = test system: trypsin; conditions: cited from earlier work
[2] = test system: SARS-CoV; conditions: mouse, in vivo; cited from earlier work
[3] = cited from earlier work
[4] = target: Recombinant Human TMPRSS2 (Homo sapiens, UniProt O15393); test: TMPRSS2 fluorogenic biochemical assay
[5] = test system: prostasin; conditions: cited from earlier work
[6] = test system: SARS-CoV-2-S-mediated pseudotyped particle entry; conditions: cited from earlier work
[7] = test system: TMPRSS2 (aa 148–492); conditions: TMPRSS2 biochemical screen; cited from earlier work

Chain of Recombinant Human TMPRSS2 (O15393 106-492): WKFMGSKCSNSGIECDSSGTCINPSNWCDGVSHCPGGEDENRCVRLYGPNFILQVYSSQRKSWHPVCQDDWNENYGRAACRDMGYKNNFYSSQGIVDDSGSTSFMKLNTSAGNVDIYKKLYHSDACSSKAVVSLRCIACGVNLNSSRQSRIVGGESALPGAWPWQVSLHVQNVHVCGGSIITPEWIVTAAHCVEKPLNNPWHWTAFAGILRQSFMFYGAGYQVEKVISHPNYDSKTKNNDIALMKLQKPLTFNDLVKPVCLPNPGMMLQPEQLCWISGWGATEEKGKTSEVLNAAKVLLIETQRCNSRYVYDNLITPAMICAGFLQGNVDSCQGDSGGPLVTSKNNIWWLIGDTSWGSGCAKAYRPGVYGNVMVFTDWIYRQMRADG

SMILES: CN(C)C(=O)COC(=O)Cc1ccc(OC(=O)c2ccc(NC(=N)N)cc2)cc1 [camostat]
- pIC50 [1]: ~7.30
- SARS-CoV pathogenesis [2]: mitigated SARS-CoV pathogenesis
- t1/2 of hydrolysis in plasma ([3]; plasma): < 1 min

SMILES: Cc1cc(=O)oc2cc(NC(=O)[C@H](CCCNC(=N)N)NC(=O)[C@H](C)NC(=O)[C@H](CCC(N)=O)NC(=O)OC(C)(C)C)ccc12 [Boc-Gln-Ala-Arg-AMC] (Boc-Gln-Ala-Arg-{AMC})
- released AMC ([4]; 60 min, peptide 10 μM, TMPRSS2 1 μM, Tris-HCl pH8): 27%

SMILES: N=C(N)Nc1ccc(C(=O)O)cc1 [4-guanidinobenzoic acid]
- inhibition of prostasin [5]: do not inhibit

SMILES: N=C(N)Nc1ccc(C(=O)Oc2ccc(CC(=O)O)cc2)cc1 [FOY-251, 4-(4-guanidinobenzoyloxy)phenylacetic acid]
- mean terminal half-life [3]: 60 min

SMILES: CN(Cc1cc(Br)cc(Br)c1N)C1CCCCC1 [bromhexine]
- inhibition of TMPRSS2 ([4]; dose–response, listed as Bromhexine hydrochloride): no inhibition
- inhibition of pseudotyped particle entry [6]: lack of inhibiting SARS-CoV-2-S-mediated pseudotyped particle entry
- pIC50 [7]: 6.12

SMILES: Nc1c(Br)cc(Br)cc1CN[C@H]1CC[C@H](O)CC1 [ambroxol]
- TMPRSS2 inhibition ([4]; 40 μM, data not shown): did not show any TMPRSS2 inhibition

SMILES: N=C(N)c1ccc2cc(O)ccc2c1 [6-amidino-2-naphthol]
- inhibition of prostasin [5]: do not inhibit

SMILES: N=C(N)c1ccc2cc(OC(=O)c3ccc(N=C(N)N)cc3)ccc2c1 [nafamostat]
- plasma half-life (t1/2) ([3]; IV infusion): about 23 min
